Test results published in publication PMC7073229, “Novel Quinoline Compounds Active in Cancer Cells through Coupled DNA Methyltransferase Inhibition and Degradation” (Cancers, 2020).

Columns and labels:
Assay in all cases: Kinase inhibitory assay (panel)
Format in all cases: biochemical
Conditions in all cases: read-out: % inhibition at 10 µM
CDC2/CDK1 (h) (cycB) = CDC2/CDK1 (h) (cycB) (Homo sapiens, UniProt P06493)
Protocol: (§1) Experimental procedure of kinase inhibitory assays
(§2) The test compound, reference compound or water (control) were mixed with the enzyme (for the exact amount see table below) in the appropriate buffer. Thereafter, the reaction was initiated by adding the required amount of the appropriate substrate and of ATP, and the mixture is incubated at room temperature (variable reaction time, see table below). For control basal measurements, the enzyme was omitted from the reaction mixture. Following incubation, the reaction was stopped by adding 13 mM
(§3) EDTA. After 5 min, the proper antibody labelled with europium chelate was added. After 60 more min, the fluorescence transfer was measured at λex=337 nm, λem=620 nm and λem=665 nm using a microplate reader (Envision, Perkin Elmer). The enzyme activity was determined by d ividing the signal measured at 665 nm by that measured at 620 nm (ratio). The results are expressed as a percent inhibition of the control enzyme activity. The standard inhibitory reference compound is staurosporine when not differently indicated (see tabl e below), which has been tested in each experiment at several concentrations to obtain an inhibition curve from which its IC 50 value is calculated.
(§4) • Assay volume and format: 10 µL in 384-well plate
(§5) • Compound addition: [100x] solution in solvent then [5x] solution in water • Maximum tolerable DMSO concentration: 1%

c-Met kinase (h) = c-Met kinase (h) (Homo sapiens, UniProt P08581)
Protocol: as §1, §2, §3, §4, §5

PDK1 (h) = PDK1 (h) (Homo sapiens, UniProt O15530)
Protocol: as §1, §2, §3, §4, §5

FGFR2 kinase (h) = FGFR2 kinase (h) (Homo sapiens, UniProt P21802)
Protocol: as §1, §2, §3, §4, §5

EGFR kinase (h) = EGFR kinase (h) (Homo sapiens, UniProt P00533)
Protocol: as §1, §2, §3, §4, §5

Pim2 kinase (h) = Pim2 kinase (h) (Homo sapiens, UniProt Q9P1W9)
Protocol: as §1, §2, §3, §4, §5

PKA (h) = PKA (h) (Homo sapiens, UniProt P17612)
Protocol: as §1, §2, §3, §4, §5

Akt1/PKBalpha (h) = Akt1/PKBalpha (h) (Homo sapiens, UniProt P31749)
Protocol: as §1, §2, §3, §4, §5

EphA3 kinase (h) = EphA3 kinase (h) (Homo sapiens, UniProt P29320)
Protocol: as §1, §2, §3, §4, §5

ROCK1 (h) = ROCK1 (h) (Homo sapiens, UniProt Q13464)
Protocol: as §1, §2, §3, §4, §5

Abl kinase (h) = Abl kinase (h) (Homo sapiens, UniProt P00519)
Protocol: as §1, §2, §3, §4, §5

JNK1 (h) = JNK1 (h) (Homo sapiens, UniProt P45983)
Protocol: as §1, §2, §3, §4, §5

p38alpha kinase (h) = p38alpha kinase (h) (Homo sapiens, UniProt Q16539)
Protocol: as §1, §2, §3, §4, §5

PAK2 (h) = PAK2 (h) (Homo sapiens, UniProt Q13177)
Protocol: as §1, §2, §3, §4, §5

SGK1 (h) = SGK1 (h) (Homo sapiens, UniProt O00141)
Protocol: as §1, §2, §3, §4, §5

CaMK2alpha (h) = CaMK2alpha (h) (Homo sapiens, UniProt Q9UQM7)
Protocol: as §1, §2, §3, §4, §5

MNK2 (h) = MNK2 (h) (Homo sapiens, UniProt Q9HBH9)
Protocol: as §1, §2, §3, §4, §5

Chain of CaMK2alpha (h) (Q9UQM7 whole entry): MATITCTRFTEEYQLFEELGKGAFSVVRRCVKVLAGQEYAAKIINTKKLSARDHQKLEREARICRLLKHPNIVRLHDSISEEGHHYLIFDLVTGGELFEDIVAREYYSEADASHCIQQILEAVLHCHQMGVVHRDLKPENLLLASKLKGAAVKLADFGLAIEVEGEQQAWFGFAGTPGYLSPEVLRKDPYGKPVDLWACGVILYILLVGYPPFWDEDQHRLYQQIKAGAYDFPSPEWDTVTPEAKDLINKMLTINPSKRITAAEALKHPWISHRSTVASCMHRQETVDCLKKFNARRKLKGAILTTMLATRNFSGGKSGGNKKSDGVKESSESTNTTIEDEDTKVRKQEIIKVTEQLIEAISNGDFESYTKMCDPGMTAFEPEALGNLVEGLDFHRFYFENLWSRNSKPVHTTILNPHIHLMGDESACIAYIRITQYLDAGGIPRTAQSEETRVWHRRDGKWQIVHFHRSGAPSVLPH
Chain of c-Met kinase (h) (P08581 25-1390): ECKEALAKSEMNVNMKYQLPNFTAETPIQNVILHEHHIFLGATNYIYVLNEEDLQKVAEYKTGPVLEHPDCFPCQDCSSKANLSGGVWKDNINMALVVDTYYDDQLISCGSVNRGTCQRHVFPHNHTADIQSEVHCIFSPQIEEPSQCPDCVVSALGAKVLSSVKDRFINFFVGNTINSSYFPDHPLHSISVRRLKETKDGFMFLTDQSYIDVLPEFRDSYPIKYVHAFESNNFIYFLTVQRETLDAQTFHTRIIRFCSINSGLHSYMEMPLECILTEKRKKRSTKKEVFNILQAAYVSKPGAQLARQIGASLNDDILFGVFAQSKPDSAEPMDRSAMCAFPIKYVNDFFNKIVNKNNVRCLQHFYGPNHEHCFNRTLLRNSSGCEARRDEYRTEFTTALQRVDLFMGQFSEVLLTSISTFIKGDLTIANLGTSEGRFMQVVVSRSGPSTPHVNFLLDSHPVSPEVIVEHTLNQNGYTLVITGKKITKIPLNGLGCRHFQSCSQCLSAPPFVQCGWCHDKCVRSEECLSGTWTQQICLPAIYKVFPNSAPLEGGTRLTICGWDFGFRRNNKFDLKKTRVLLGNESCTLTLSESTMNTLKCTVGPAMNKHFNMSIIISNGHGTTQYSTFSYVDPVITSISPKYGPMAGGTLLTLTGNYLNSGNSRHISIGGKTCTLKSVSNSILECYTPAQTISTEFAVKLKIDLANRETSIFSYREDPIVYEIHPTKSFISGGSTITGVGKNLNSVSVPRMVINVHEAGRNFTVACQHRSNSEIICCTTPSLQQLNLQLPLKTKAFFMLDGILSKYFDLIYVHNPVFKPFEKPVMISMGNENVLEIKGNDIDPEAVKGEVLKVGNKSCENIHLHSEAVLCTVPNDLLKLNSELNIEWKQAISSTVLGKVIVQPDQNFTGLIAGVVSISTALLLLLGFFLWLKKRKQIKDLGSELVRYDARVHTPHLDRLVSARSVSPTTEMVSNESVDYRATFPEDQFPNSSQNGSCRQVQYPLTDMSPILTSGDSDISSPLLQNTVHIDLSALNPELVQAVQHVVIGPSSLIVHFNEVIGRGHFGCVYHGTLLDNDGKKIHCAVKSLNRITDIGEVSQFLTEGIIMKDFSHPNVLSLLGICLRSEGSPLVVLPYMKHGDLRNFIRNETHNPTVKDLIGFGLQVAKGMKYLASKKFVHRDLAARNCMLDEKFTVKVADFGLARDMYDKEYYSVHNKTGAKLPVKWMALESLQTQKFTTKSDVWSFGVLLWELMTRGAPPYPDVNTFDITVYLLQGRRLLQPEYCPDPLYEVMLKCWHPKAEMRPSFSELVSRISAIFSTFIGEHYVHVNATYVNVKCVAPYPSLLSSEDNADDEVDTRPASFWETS
Chain of CDC2/CDK1 (h) (cycB) (P06493 whole entry): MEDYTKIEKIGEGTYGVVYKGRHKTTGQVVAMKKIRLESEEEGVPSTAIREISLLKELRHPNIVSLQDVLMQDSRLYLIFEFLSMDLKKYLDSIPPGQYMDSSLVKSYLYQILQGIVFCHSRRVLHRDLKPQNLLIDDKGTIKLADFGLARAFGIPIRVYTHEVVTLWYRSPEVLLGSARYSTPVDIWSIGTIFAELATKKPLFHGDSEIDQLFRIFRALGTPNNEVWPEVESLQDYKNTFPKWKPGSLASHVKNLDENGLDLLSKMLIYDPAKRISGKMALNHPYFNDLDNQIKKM
Chain of CDC2/CDK1 (h) (cycB) (P14635 whole entry partner): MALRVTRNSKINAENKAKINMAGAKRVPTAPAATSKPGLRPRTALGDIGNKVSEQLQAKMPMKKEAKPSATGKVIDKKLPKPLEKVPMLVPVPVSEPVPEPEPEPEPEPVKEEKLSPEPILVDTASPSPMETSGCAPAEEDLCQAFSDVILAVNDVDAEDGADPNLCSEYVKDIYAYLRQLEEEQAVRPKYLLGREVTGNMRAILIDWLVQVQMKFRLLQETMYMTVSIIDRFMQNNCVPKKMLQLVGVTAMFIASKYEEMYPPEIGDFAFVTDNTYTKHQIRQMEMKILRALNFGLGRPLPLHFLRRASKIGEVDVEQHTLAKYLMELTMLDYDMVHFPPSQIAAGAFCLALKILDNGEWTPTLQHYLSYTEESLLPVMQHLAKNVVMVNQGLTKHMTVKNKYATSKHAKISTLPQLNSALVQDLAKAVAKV
Chain of ROCK1 (h) (Q13464 whole entry): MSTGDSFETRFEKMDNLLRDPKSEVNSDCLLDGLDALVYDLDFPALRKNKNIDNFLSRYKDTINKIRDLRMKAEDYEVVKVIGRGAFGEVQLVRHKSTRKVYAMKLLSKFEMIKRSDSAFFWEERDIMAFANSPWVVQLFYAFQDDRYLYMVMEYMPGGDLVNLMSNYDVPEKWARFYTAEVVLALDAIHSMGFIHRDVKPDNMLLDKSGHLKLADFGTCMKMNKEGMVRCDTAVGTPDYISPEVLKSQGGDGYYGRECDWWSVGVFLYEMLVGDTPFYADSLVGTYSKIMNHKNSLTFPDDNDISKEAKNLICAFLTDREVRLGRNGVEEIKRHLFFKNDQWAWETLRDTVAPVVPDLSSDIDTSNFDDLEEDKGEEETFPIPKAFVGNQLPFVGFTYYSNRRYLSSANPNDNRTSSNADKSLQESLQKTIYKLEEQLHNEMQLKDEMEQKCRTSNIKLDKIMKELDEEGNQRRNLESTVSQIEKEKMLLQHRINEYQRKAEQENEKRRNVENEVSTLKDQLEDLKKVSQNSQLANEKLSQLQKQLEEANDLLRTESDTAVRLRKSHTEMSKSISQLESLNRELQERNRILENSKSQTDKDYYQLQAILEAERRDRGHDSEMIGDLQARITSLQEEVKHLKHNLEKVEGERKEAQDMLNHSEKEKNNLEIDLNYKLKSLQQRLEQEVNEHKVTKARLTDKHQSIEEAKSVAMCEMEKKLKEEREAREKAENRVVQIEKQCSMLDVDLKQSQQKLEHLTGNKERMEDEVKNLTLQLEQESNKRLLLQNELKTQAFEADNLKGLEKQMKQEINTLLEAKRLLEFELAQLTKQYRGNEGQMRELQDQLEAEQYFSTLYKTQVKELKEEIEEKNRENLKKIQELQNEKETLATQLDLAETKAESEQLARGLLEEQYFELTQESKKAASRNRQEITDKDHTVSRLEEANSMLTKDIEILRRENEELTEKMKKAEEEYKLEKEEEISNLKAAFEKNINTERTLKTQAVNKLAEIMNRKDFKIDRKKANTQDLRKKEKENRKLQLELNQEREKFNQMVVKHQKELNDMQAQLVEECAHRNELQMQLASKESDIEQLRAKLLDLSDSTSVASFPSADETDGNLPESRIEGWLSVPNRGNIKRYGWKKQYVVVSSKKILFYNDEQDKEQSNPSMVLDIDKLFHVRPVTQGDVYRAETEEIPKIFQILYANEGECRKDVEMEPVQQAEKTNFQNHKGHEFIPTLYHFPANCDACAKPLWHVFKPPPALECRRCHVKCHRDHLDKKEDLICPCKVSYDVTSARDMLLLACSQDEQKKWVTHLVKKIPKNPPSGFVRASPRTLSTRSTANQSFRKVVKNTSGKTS
Chain of p38alpha kinase (h) (Q16539 whole entry): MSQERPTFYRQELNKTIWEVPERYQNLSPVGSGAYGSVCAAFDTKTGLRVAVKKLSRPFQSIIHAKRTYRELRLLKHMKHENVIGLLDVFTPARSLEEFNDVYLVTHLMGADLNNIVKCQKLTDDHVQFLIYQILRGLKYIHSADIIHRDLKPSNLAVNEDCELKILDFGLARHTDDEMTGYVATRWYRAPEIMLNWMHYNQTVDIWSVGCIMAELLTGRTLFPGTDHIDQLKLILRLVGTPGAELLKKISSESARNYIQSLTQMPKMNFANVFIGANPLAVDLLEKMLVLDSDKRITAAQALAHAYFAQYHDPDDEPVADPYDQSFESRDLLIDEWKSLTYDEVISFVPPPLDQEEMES
Chain of Pim2 kinase (h) (Q9P1W9 whole entry): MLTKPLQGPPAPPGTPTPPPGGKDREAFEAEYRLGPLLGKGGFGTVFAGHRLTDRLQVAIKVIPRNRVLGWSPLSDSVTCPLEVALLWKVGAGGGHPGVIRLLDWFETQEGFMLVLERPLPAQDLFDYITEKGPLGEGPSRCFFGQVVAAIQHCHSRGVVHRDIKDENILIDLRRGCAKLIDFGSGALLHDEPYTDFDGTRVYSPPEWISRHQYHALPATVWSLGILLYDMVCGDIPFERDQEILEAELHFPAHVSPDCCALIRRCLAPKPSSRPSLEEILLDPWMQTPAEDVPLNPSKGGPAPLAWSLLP
Chain of SGK1 (h) (O00141 whole entry): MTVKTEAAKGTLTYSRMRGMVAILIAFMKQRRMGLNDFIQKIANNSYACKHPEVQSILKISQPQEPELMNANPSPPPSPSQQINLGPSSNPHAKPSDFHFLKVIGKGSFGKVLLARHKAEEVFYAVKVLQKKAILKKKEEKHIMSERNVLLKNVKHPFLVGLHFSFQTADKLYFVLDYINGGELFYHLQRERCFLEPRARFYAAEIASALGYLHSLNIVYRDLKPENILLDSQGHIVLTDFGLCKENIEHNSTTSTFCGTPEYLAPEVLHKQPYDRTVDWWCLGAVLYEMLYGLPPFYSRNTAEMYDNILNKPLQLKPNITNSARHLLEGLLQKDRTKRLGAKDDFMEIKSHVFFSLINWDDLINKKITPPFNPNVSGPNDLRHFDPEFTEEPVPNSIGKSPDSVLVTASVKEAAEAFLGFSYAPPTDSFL

`O=C(Nc1ccc(Nc2ccnc3ccccc23)cc1)c1cccc(Nc2ccnc3ccccc23)c1` [Compound 2a] showed an inhibition at 10 µM (CDC2/CDK1 (h) (cycB)) of 16%, an inhibition at 10 µM (c-Met kinase (h)) of -54% and an inhibition at 10 µM (PDK1 (h)) of -169%. For the same compound, the inhibition at 10 µM (FGFR2 kinase (h)) was 1%, the inhibition at 10 µM (EGFR kinase (h)) was 36% and the inhibition at 10 µM (Pim2 kinase (h)) was -51%. For the same compound, the inhibition at 10 µM (PKA (h)) was 26%, the inhibition at 10 µM (Akt1/PKBalpha (h)) was -178% and the inhibition at 10 µM (EphA3 kinase (h)) was -57%. For the same compound, the inhibition at 10 µM (ROCK1 (h)) was -61%, the inhibition at 10 µM (Abl kinase (h)) was 0% and the inhibition at 10 µM (JNK1 (h)) was -91%. The inhibition at 10 µM (p38alpha kinase (h)) was -64%, the inhibition at 10 µM (PAK2 (h)) was -150% and the inhibition at 10 µM (SGK1 (h)) was 28%. For the same compound, the inhibition at 10 µM (CaMK2alpha (h)) was -99% and the inhibition at 10 µM (MNK2 (h)) was -6%.
